Results reported in US11285127B2, “Compositions and methods for lowering triglycerides without raising LDL-C levels in a subject on concomitant statin therapy” (Amarin Pharmaceuticals Ireland Limited, priority 2013, dated 2022).

Test system: patients with fasting triglyceride levels >200 mg/dl and <500 mg/dl despite statin therapy
Assay: 12-week study: inflammatory biomarkers (ICAM-1, interleukin, PAI-1, hsCRP)
Assay type: in vivo, human
Details: MITT; for ICAM-1, Difference from placebo, Estimated median / IL-6, Difference from placebo, Estimated median / PAI-1, Difference from placebo, Estimated median / hsCRP, Difference from placebo, Estimated median: Week 12; for hsCRP, Difference from placebo, Estimated median: post-hoc, median percent change from baseline; for ICAM-1, Week 12 EP Median (IQR) / IL-6, Week 12 EP Median (IQR) / PAI-1, Week 12 EP Median (IQR) / hsCRP, Week 12 EP Median (IQR): Week 12 endpoint (LOCF); for hsCRP, Week 12 EP Median (IQR) / hsCRP, Median % Chg from BL (IQR): post-hoc analysis; for ICAM-1, change from Baseline, Median (IQR) / IL-6, change from Baseline, Median (IQR) / PAI-1, change from Baseline, Median (IQR) / hsCRP, Median % Chg from BL (IQR): baseline to Week 12
Source text: Parameters (a)-(z) can be measured in accordance with any clinically acceptable methodology. For example, triglycerides, total cholesterol, HDL-C and fasting blood sugar can be sample from serum and analyzed using standard photometry techniques. VLDL-TG, LDL-C and VLDL-C can be calculated or determined using serum lipoprotein fractionation by preparative ultracentrifugation and subsequent quantitative analysis by refractometry or by analytic ultracentrifugal methodology. Apo A1, Apo B and hsCRP can be determined from serum using standard nephelometry techniques. Lipoprotein (a) can be determined from serum using standard turbidimetric immunoassay techniques. LDL particle number and particle size can be determined using nuclear magnetic resonance (NMR) spectrometry. Remnants lipoproteins and LDL-phospholipase A2 can be determined from EDTA plasma or serum and serum, respectively, using enzymatic immunoseparation techniques. Oxidized LDL, intercellular adhesion molecule-1 and interleukin-2 levels can be determined from serum using standard enzyme immunoassay techniques. These techniques are described in detail in standard textbooks, for example Tietz Fundamentals of Clinical Chemistry, 6th Ed. (Burtis, Ashwood and Borter Eds.), WB Saunders Company.
A multi-center, placebo-controlled, randomized, double-blind, 12-week study was performed to evaluate the efficacy and safety of >96% E-EPA in patients with fasting triglyceride levels >200 mg/dl and <500 mg/dl despite statin therapy (the mean of two qualifying entry values needed to be >185 mg/dl and at least one of the values needed to be >200 mg/dl). The primary objective of the study was to determine the efficacy of >96% E-EPA 2 g daily and 4 g daily, compared to placebo, in lowering fasting TG levels in patients with high risk for cardiovascular disease and with fasting TG levels 200 mg/dl and <500 mg/dl, despite treatment to LDL-C goal on statin therapy.
The secondary objectives of this study were the following: • 1. To determine the safety and tolerability of >96% E-EPA 2 g daily and 4 g daily; • 2. To determine the effect of >96% E-EPA on lipid and apolipoprotein profiles including total cholesterol (TC), non-high-density lipoprotein cholesterol (non-HDL-C), low density lipoprotein cholesterol (LDL-C), high density lipoprotein cholesterol (HDL-C), and […]; • 3. To determine the effect of >96% E-EPA on lipoprotein associated phospholipase A2 (Lp-PLA2) from baseline to week 12; • 4. To determine the effect of >96% E-EPA on low-density lipoprotein (LDL) particle number and size; • 5. To determine the effect of >96% E-EPA on oxidized LDL; • 6. To determine the effect of >96% E-EPA on fasting plasma glucose (FPG) and hemoglobin A1c (HbA1c); • 7. To determine the effect of >96% E-EPA on insulin resistance; • 8. To determine the effect of >96% E-EPA on high-sensitivity C-reactive protein (hsCRP); • 9. To determine the effects of >96% E-EPA 2 g daily and 4 g daily on the incorporation of fatty acids into red blood cell membranes and into plasma phospholipids; • 10. To explore the relationship between baseline fasting TG levels and the reduction in fasting TG levels; and • 11. To explore the relationship between changes of fatty acid concentrations in plasma and red blood cell membranes, and the reduction in fasting TG levels.
The primary efficacy variable for the double-blind treatment period was percent change in TG from baseline to Week 12 endpoint. […]

[1] = AMR101 2 g/d + statin vs placebo
[2] = AMR101 4 g/d + statin vs placebo

Q: `CC/C=C\C/C=C\C/C=C\C/C=C\C/C=C\CCCC(=O)OCC` [AMR101, ethyl eicosapentaenoate] was tested. Which “ICAM-1, Difference from placebo, Estimated median” value [1] did it give?
A: -6.0 ng/mL

Q: What about the “IL-6, Difference from placebo, Estimated median” value [1] of the same compound?
A: 0.1 pg/mL

Q: And the “PAI-1, Difference from placebo, Estimated median” value [1]?
A: 12.1 ng/mL

Q: And the “hsCRP, Difference from placebo, Estimated median” value [1]?
A: −6.8%

Q: What about the “ICAM-1, Week 12 EP Median (IQR)” value (AMR101 2 g/d + statin) of the same compound?
A: 268.5 (89.0) ng/mL

Q: And the “IL-6, Week 12 EP Median (IQR)” value (AMR101 2 g/d + statin)?
A: 2.7 (2.3) pg/mL

Q: What about the “PAI-1, Week 12 EP Median (IQR)” value (AMR101 2 g/d + statin) of the same compound?
A: 90.3 (67.4) ng/mL

Q: What about the “hsCRP, Week 12 EP Median (IQR)” value (AMR101 2 g/d + statin) of the same compound?
A: 2.5 (3.4) mg/L

Q: And the “ICAM-1, change from Baseline, Median (IQR)” value (AMR101 2 g/d + statin)?
A: 1.5 (37.0) ng/mL

Q: What about the “IL-6, change from Baseline, Median (IQR)” value (AMR101 2 g/d + statin) of the same compound?
A: 0.2 (1.3) pg/mL

Q: What about the “PAI-1, change from Baseline, Median (IQR)” value (AMR101 2 g/d + statin) of the same compound?
A: 14.6 (38.8) ng/mL

Q: And the “hsCRP, Median % Chg from BL (IQR)” value (AMR101 2 g/d + statin)?
A: 10.3 (88.6) %

Q: What about the “ICAM-1, Difference from placebo, Estimated median” value [2] of the same compound?
A: -6.0 ng/mL

Q: What about the “IL-6, Difference from placebo, Estimated median” value [2] of the same compound?
A: -0.1 pg/mL

Q: What about the “PAI-1, Difference from placebo, Estimated median” value [2] of the same compound?
A: 0.6 ng/mL

Q: What about the “hsCRP, Difference from placebo, Estimated median” value [2] of the same compound?
A: −22.0%

Q: What about the “ICAM-1, Week 12 EP Median (IQR)” value (AMR101 4 g/d + statin) of the same compound?
A: 270.0 (110.0) ng/mL

Q: And the “IL-6, Week 12 EP Median (IQR)” value (AMR101 4 g/d + statin)?
A: 2.6 (2.1) pg/mL

Q: What about the “PAI-1, Week 12 EP Median (IQR)” value (AMR101 4 g/d + statin) of the same compound?
A: 85.6 (86.3) ng/mL

Q: And the “hsCRP, Week 12 EP Median (IQR)” value (AMR101 4 g/d + statin)?
A: 2.0 (3.0) mg/L

Q: And the “ICAM-1, change from Baseline, Median (IQR)” value (AMR101 4 g/d + statin)?
A: 2.5 (40.0) ng/mL

Q: And the “IL-6, change from Baseline, Median (IQR)” value (AMR101 4 g/d + statin)?
A: 0.1 (1.8) pg/mL

Q: And the “PAI-1, change from Baseline, Median (IQR)” value (AMR101 4 g/d + statin)?
A: −3.1 (45.2) ng/mL

Q: And the “hsCRP, Median % Chg from BL (IQR)” value (AMR101 4 g/d + statin)?
A: −2.4 (62.8) %
